The text below walks through data of patent publication US12366572B2, “Activation of bioluminescence by structural complementation” (Promega Corporation, priority 2013, dated 2025).

For the assay, the target named is NLpoly 11S (Oplophorus gracilirostris, UniProt Q9GV45, A31E/A60N/A81I/D135N/F58L/F95D/G184S/G42A/G62A/G78A/G94A/G98A/H120P/I103V/I117V/I134L/K70R/L176M/L26M/L54V/L73R/L99Q/M102E/N171T/P142E/Q151K/Q38E/Q45L/T27V/V71I/Y165I). Description: biochemical. The format is binding.
NLpoly 11S, sequence (Q9GV45 26-184 with the stated changes limits assumed): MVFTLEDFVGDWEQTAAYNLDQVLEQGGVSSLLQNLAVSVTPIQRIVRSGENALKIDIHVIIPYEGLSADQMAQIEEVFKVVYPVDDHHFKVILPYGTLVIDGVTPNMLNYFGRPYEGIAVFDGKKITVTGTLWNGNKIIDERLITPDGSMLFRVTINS
By Kd is commonly meant the free concentration of one partner at which half of the binding sites on the other are occupied at equilibrium, for simple one-to-one binding. Read a low Kd as a tighter complex. In turn, `CC[C@H](C)[C@H](NC(=O)[C@H](CCCCN)NC(=O)[C@H](CCC(=O)O)NC(=O)[C@H](Cc1ccccc1)NC(=O)[C@H](CC(C)C)NC(=O)[C@H](CCCNC(=N)N)NC(=O)[C@H](Cc1ccc(O)cc1)NC(=O)CNC(=O)[C@@H](NC(=O)[C@@H](NC(C)=O)C(C)C)[C@@H](C)O)C(=O)N[C@@H](CO)C(N)=O` [array2.19, VTGYRLFEKIS] registered a Kd of 0.605 µM.
For “Ac-VEGYRLFEEAS-NH2 [array2.80, VEGYRLFEEAS]” the value was 1420 µM.
Turning to “Ac-VEGYRLFEKAL-NH2 [array2.101, VEGYRLFEKAL]”, binding was put at a Kd of 12.6 µM.
Next, “Ac-VEGYRLFEKAS-NH2 [array2.74, VEGYRLFEKAS]”: 4.14 µM; “Ac-VEGYRLFEKEL-NH2 [array2.102, VEGYRLFEKEL]”: 5.79 µM.
As to “Ac-VEGYRLFEKES-NH2 [array2.75, VEGYRLFEKES]”, binding was put at a Kd of 2.97 µM.
Next, “Ac-VEGYRLFEKIL-NH2 [array2.100, VEGYRLFEKIL]”: 10.6 µM.
Take “Ac-VEGYRLFEKIS-NH2 [array2.73, VEGYRLFEKIS]”: binding was put at a Kd of 2.15 µM.
Turning to “Ac-VEGYRLFEQAL-NH2 [array2.104, VEGYRLFEQAL]”, the Kd turned out to be 336 µM.
“Ac-VEGYRLFEQAS-NH2 [array2.77, VEGYRLFEQAS]” registered a Kd of 48.3 µM.
“Ac-VEGYRLFEQES-NH2 [array2.78, VEGYRLFEQES]” returned a Kd of 252 µM.
As to “Ac-VEGYRLFEQIS-NH2 [array2.76, VEGYRLFEQIS]”, the Kd was found to be 52.8 µM.
In turn, “Ac-VEGYRLFKEAL-NH2 [array2.89, VEGYRLFKEAL]” yielded an equilibrium dissociation constant (Kd) of 42.4 µM.
For “Ac-VEGYRLFKEAS-NH2 [array2.62, VEGYRLFKEAS]” the value was 22.1 µM.
Regarding “Ac-VEGYRLFKEEL-NH2 [array2.90, VEGYRLFKEEL]”, the equilibrium dissociation constant (Kd) turned out to be 101 µM.
As for “Ac-VEGYRLFKEES-NH2 [array2.63, VEGYRLFKEES]”, the Kd amounted to 220 µM.
As to “Ac-VEGYRLFKEIL-NH2 [array2.88, VEGYRLFKEIL]”, the Kd was determined as 17.8 µM.
Consider “Ac-VEGYRLFKEIS-NH2 [array2.61, VEGYRLFKEIS]”, for which binding was characterised by a dissociation constant (Kd) of 14.4 µM.
The compound “Ac-VEGYRLFKKAL-NH2 [array2.83, VEGYRLFKKAL]” displayed a Kd of 1.59 µM.
Regarding “Ac-VEGYRLFKKAS-NH2 [array2.56, VEGYRLFKKAS]”, the dissociation constant (Kd) stood at 0.641 µM.
On to “Ac-VEGYRLFKKEL-NH2 [array2.84, VEGYRLFKKEL]”, for which the affinity, expressed as Kd, was 1.41 µM.
As for “Ac-VEGYRLFKKES-NH2 [array2.57, VEGYRLFKKES]”, the affinity, expressed as Kd, was 0.891 µM.
With “Ac-VEGYRLFKKIL-NH2 [array2.82, VEGYRLFKKIL]”, the dissociation constant Kd came to 0.563 µM.
In turn, “Ac-VEGYRLFKKIS-NH2 [array2.55, VEGYRLFKKIS]” registered a Kd of 0.078 µM.
For “Ac-VEGYRLFKQAL-NH2 [array2.86, VEGYRLFKQAL]” the value was 2.27 µM; for “Ac-VEGYRLFKQAS-NH2 [array2.59, VEGYRLFKQAS]”, 2.09 µM; for “Ac-VEGYRLFKQEL-NH2 [array2.87, VEGYRLFKQEL]”, 12.6 µM.
The compound “Ac-VEGYRLFKQIL-NH2 [array2.85, VEGYRLFKQIL]” had a dissociation constant Kd of 10.3 µM.
“Ac-VEGYRLFKQIS-NH2 [array2.58, VEGYRLFKQIS]” registered a Kd of 2.09 µM.
For the compound “Ac-VEGYRLFQEAL-NH2 [array2.98, VEGYRLFQEAL]”, the affinity, expressed as Kd, was 99.9 µM.
With “Ac-VEGYRLFQEAS-NH2 [array2.71, VEGYRLFQEAS]”, the Kd stood at 24 µM.
Compound “Ac-VEGYRLFQEIS-NH2 [array2.70, VEGYRLFQEIS]” registered a Kd of 230 µM.
For “Ac-VEGYRLFQKAL-NH2 [array2.92, VEGYRLFQKAL]” the value was 2.02 µM; for “Ac-VEGYRLFQKAS-NH2 [array2.65, VEGYRLFQKAS]”, 1.93 µM.
With “Ac-VEGYRLFQKEL-NH2 [array2.93, VEGYRLFQKEL]”, the dissociation constant Kd turned out to be 1.69 µM.
“Ac-VEGYRLFQKES-NH2 [array2.66, VEGYRLFQKES]” returned a Kd of 2.87 µM.
As to “Ac-VEGYRLFQKIL-NH2 [array2.91, VEGYRLFQKIL]”, the affinity, expressed as Kd, was 2.08 µM.
Consider “Ac-VEGYRLFQKIS-NH2 [array2.64, VEGYRLFQKIS]”, for which binding was put at a Kd of 0.586 µM.
Next, “Ac-VEGYRLFQQAL-NH2 [array2.95, VEGYRLFQQAL]”: 18.8 µM; “Ac-VEGYRLFQQAS-NH2 [array2.68, VEGYRLFQQAS]”: 20 µM.
For “Ac-VEGYRLFQQEL-NH2 [array2.96, VEGYRLFQQEL]” the value was 99.4 µM; for “Ac-VEGYRLFQQIL-NH2 [array2.94, VEGYRLFQQIL]”, 9.39 µM; for “Ac-VEGYRLFQQIS-NH2 [array2.67, VEGYRLFQQIS]”, 8.14 µM.
For “Ac-VTGYRLFEEEL-NH2 [array2.54, VTGYRLFEEEL]” the value was 68.3 µM; for “Ac-VTGYRLFEEIL-NH2 [array2.52, VTGYRLFEEIL]”, 104 µM.
“Ac-VTGYRLFEKAL-NH2 [array2.47, VTGYRLFEKAL]” gave an equilibrium dissociation constant (Kd) of 1.81 µM.
As for “Ac-VTGYRLFEKAS-NH2 [array2.20, VTGYRLFEKAS]”, binding was characterised by a dissociation constant (Kd) of 1.79 µM.
For “Ac-VTGYRLFEKEL-NH2 [array2.48, VTGYRLFEKEL]” the value was 2.44 µM; for “Ac-VTGYRLFEKIL-NH2 [array2.46, VTGYRLFEKIL]”, 1.92 µM.
“Ac-VTGYRLFEQAL-NH2 [array2.50, VTGYRLFEQAL]” came in with a Kd of 40.4 µM.
Regarding “Ac-VTGYRLFEQAS-NH2 [array2.23, VTGYRLFEQAS]”, the affinity, expressed as Kd, was 4.17 µM.
With “Ac-VTGYRLFEQEL-NH2 [array2.51, VTGYRLFEQEL]”, the affinity, expressed as Kd, was 85 µM.
Next, “Ac-VTGYRLFEQES-NH2 [array2.24, VTGYRLFEQES]”: 7.83 µM; “Ac-VTGYRLFEQIL-NH2 [array2.49, VTGYRLFEQIL]”: 124 µM; “Ac-VTGYRLFEQIS-NH2 [array2.22, VTGYRLFEQIS]”: 10.8 µM.
For “Ac-VTGYRLFKEAL-NH2 [array2.35, VTGYRLFKEAL]” the value was 5.15 µM; for “Ac-VTGYRLFKEAS-NH2 [array2.8, VTGYRLFKEAS]”, 2.57 µM; for “Ac-VTGYRLFKEEL-NH2 [array2.36, VTGYRLFKEEL]”, 7.78 µM.
As for “Ac-VTGYRLFKEES-NH2 [array2.9, VTGYRLFKEES]”, the Kd is 3.86 µM.
Consider “Ac-VTGYRLFKEIL-NH2 [array2.34, VTGYRLFKEIL]”, for which the affinity, expressed as Kd, was 4.41 µM.
“Ac-VTGYRLFKEIS-NH2 [array2.7, VTGYRLFKEIS]” came in with a Kd of 4.44 µM.
Turning to “Ac-VTGYRLFKKAL-NH2 [array2.29, VTGYRLFKKAL]”, the affinity, expressed as Kd, was 0.275 µM.
“Ac-VTGYRLFKKAS-NH2 [array2.2, VTGYRLFKKAS]” registered a Kd of 0.241 µM.
For the compound “Ac-VTGYRLFKKEL-NH2 [array2.30, VTGYRLFKKEL]”, binding was characterised by a dissociation constant (Kd) of 0.671 µM.
“Ac-VTGYRLFKKES-NH2 [array2.3, VTGYRLFKKES]”: the equilibrium dissociation constant (Kd) turned out to be 0.773 µM.
In turn, “Ac-VTGYRLFKKIL-NH2 [array2.28, VTGYRLFKKIL]” registered a dissociation constant (Kd) of 0.0766 µM.
Turning to “Ac-VTGYRLFKKIS-NH2 [array2.1, VTGYRLFKKIS]”, the Kd was 0.0133 µM.
For “Ac-VTGYRLFKQAL-NH2 [array2.32, VTGYRLFKQAL]” the value was 3.56 µM; for “Ac-VTGYRLFKQAS-NH2 [array2.5, VTGYRLFKQAS]”, 1.95 µM; for “Ac-VTGYRLFKQEL-NH2 [array2.33, VTGYRLFKQEL]”, 1.95 µM.
On to “Ac-VTGYRLFKQES-NH2 [array2.6, VTGYRLFKQES]”, for which binding was characterised by a dissociation constant (Kd) of 1.35 µM.
For “Ac-VTGYRLFKQIL-NH2 [array2.31, VTGYRLFKQIL]”, the Kd was 2.99 µM.
Compound “Ac-VTGYRLFKQIS-NH2 [array2.4, VTGYRLFKQIS]” displayed a Kd of 0.746 µM.
For “Ac-VTGYRLFQEAL-NH2 [array2.44, VTGYRLFQEAL]”, the Kd amounted to 16 µM.
For the compound “Ac-VTGYRLFQEEL-NH2 [array2.45, VTGYRLFQEEL]”, the Kd was 35.4 µM.
“Ac-VTGYRLFQEES-NH2 [array2.18, VTGYRLFQEES]”: the equilibrium dissociation constant (Kd) turned out to be 67.3 µM.
Next, “Ac-VTGYRLFQEIL-NH2 [array2.43, VTGYRLFQEIL]”: 17.3 µM.
For “Ac-VTGYRLFQEIS-NH2 [array2.16, VTGYRLFQEIS]” the value was 2.56 µM; for “Ac-VTGYRLFQKAL-NH2 [array2.38, VTGYRLFQKAL]”, 0.975 µM.
Turning to “Ac-VTGYRLFQKAS-NH2 [array2.11, VTGYRLFQKAS]”, the Kd was 0.748 µM.
With “Ac-VTGYRLFQKEL-NH2 [array2.39, VTGYRLFQKEL]”, the Kd came out at 2.48 µM.
Next, “Ac-VTGYRLFQKES-NH2 [array2.12, VTGYRLFQKES]”: 0.417 µM.
As to “Ac-VTGYRLFQKIL-NH2 [array2.37, VTGYRLFQKIL]”, the dissociation constant (Kd) came to 0.362 µM.
“Ac-VTGYRLFQKIS-NH2 [array2.10, VTGYRLFQKIS]” registered a dissociation constant Kd of 0.0812 µM.
For “Ac-VTGYRLFQQAS-NH2 [array2.14, VTGYRLFQQAS]” the value was 1.11 µM; for “Ac-VTGYRLFQQEL-NH2 [array2.42, VTGYRLFQQEL]”, 19 µM.
Compound “Ac-VTGYRLFQQES-NH2 [array2.15, VTGYRLFQQES]” yielded an equilibrium dissociation constant (Kd) of 7.49 µM.
In turn, “Ac-VTGYRLFQQIL-NH2 [array2.40, VTGYRLFQQIL]” came in with a Kd of 122 µM.
Turning to “Ac-VTGYRLFQQIS-NH2 [array2.13, VTGYRLFQQIS]”, binding was characterised by a dissociation constant (Kd) of 0.876 µM.
